Consider 12 molecules from ChEMBL document CHEMBL1201862, “PubChem BioAssay data set” (2004).

What all share (test): NCI tumour cell line growth inhibition, 48 h
Assay [1] relates to SK-MEL-28.
For assay [2], the system named is TK-10.
The test system of assay [3] is EKVX.
In assay [4] the test system is SF-539.
Assay [5] deals with PC-3.
Assay [6] relates to RPMI-8226.
Assay [7] deals with SW-620.
Assay [8] concerns COLO 205.
In assay [9] the test system is MOLT-4.
Assay [10] concerns IGROV-1.
The test system of assay [11] is SK-MEL-2.
Assay [12] relates to NCI/ADR-RES.
Assay [13] has as its system SNB-19.
Assay [14] concerns Malme-3M.
Assay [15] relates to LOX IMVI.
Assay [16] has as its system CAKI-1.
Assay [17] concerns ACHN.
Assay [18] has as its system K562.
Assay [19] relates to SK-OV-3.
The test system of assay [20] is Hs-578T.

Several values for one entry are separate records, joined by “and”; a condition that tells them apart may be missing. Equal values may be shown once.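 All cell lines were grown in 96-well plates and treated with compound for 48 hours. GI50 marks 50% less growth.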 Activity calls are given as the source filed them. No stated cut-off is given here; in the data, active = GI50 up to about 1.1 µM and inactive = higher. A value given as a limit tells only on which side of the number the result lay.

For the molecule `N#Cc1nnc2ccccc2c1N`, the GI50 in [1], in [2], in assay [3], in assay [4], in assay [5] and in [6] was > 100 µM (inactive) in each case. In addition, the GI50 in [7], in assay [8], in assay [9], in [10], in assay [11] and in assay [12] was > 100 µM (inactive) throughout. For the same molecule, the GI50 in [13], in assay [14], in assay [15], in [16], in assay [17] and in [18] was > 100 µM (inactive) in each case.
Turning to `COC(=O)c1cc(O)nc(O)n1`, the GI50 in assay [1], in assay [2], in assay [3], in [5], in [7] and in assay [9] was > 100 µM (inactive) in each case. Further, the GI50 in [10], in assay [11], in [12], in assay [13], in [14] and in assay [15] was > 100 µM (inactive) throughout. Moreover, the GI50 in assay [16], in assay [17] and in assay [18] was > 100 µM (inactive) throughout.
For the molecule `C[C@@H]1C(=O)O[C@H]1[C@H](O)CO`, the GI50 is > 100 µM (inactive) in assay [1]; > 100 µM (inactive) in assay [2]; > 100 µM (inactive) in [3]; > 100 µM (inactive) in assay [5]; 94.2 µM (inactive) in [6]; > 100 µM (inactive) in [7]. For the same molecule, the GI50 in assay [8] was > 100 µM (inactive); in assay [9] it was 34.1 µM (inactive); in [19] it was > 100 µM (inactive); in assay [11], > 100 µM (inactive); in [12], > 100 µM (inactive); in assay [13] it was > 100 µM (inactive). The GI50 in assay [15], in [16] and in assay [17] was > 100 µM (inactive) throughout.
`O=C(Nc1ccc2[nH]c(C(=O)N3CC(CCl)c4c3cc([N+](=O)[O-])c3ccccc43)cc2c1)Nc1ccc2[nH]c(C(=O)N3CC(CCl)c4c3cc([N+](=O)[O-])c3ccccc43)cc2c1` (stereo not given): the GI50 in assay [1] is > 100 µM (inactive); in assay [2], > 100 µM (inactive); in [3] it was > 100 µM (inactive); in assay [4], > 100 µM (inactive); in assay [5], > 100 µM (inactive); in [6], 85.7 µM (inactive). Moreover, the GI50 in assay [8], in assay [19], in [11], in [12], in assay [13] and in assay [14] was > 100 µM (inactive) in each case. Moreover, the GI50 in assay [16] and in [17] was > 100 µM (inactive) throughout.
Consider `NC(=O)NC(=O)c1cnccn1`, for which the GI50 in assay [1] was > 100 µM (inactive); in assay [2], 12.1 µM (inactive); in [3] it was > 100 µM (inactive); in assay [4], > 100 µM (inactive); in [5], > 100 µM (inactive); in assay [6], > 100 µM (inactive). Also, the GI50 in [7] is > 100 µM (inactive); in assay [8] it was > 10 µM (inactive); in assay [9], > 100 µM (inactive); in [19], > 100 µM (inactive); in assay [11], > 100 µM (inactive); in assay [12], > 100 µM (inactive). Moreover, the GI50 in assay [13], in assay [14], in assay [15], in [16], in assay [17] and in assay [18] was > 100 µM (inactive) throughout.
For `COc1ccc2nc3ccccc3c(NCCCCN(C)CCCl)c2c1`, the GI50 in assay [1] was 0.367 µM (active); in assay [2], 0.638 µM (active); in [3], 0.393 µM (active); in [4] it was 0.0689 µM (active); in assay [5] it was 0.0569 µM (active); in assay [6], < 0.01 µM (active). In addition, the GI50 was 0.0151 µM (active) in [7]; < 0.01 µM (active) in assay [8]; < 0.01 µM (active) in assay [9]; 0.0775 µM (active) in [19]; 0.0408 µM (active) in assay [10]; 0.146 µM (active) in assay [11]. Moreover, the GI50 is 0.0611 µM (active) in [12]; 0.191 µM (active) in [13]; 0.33 µM (active) in assay [14]; 0.0335 µM (active) in [15]; 0.0284 µM (active) in assay [16]; < 0.0174 µM (active) in assay [17]. Further, the GI50 in [18] was 0.0231 µM (active).
Turning to `CCOC(CI)O[C@@H]1C=C[C@H](OC(C)=O)C1` (stereo not given in full), the GI50 in assay [1], in assay [3], in [4], in assay [5], in assay [6] and in [7] was > 100 µM (inactive) throughout. In addition, the GI50 in assay [8], in [9], in assay [19], in assay [11], in [12] and in assay [13] was > 100 µM (inactive) in each case. The GI50 in assay [14] was > 100 µM (inactive); in assay [16], 60.7 µM (inactive); in [17], > 100 µM (inactive); in [18] it was > 100 µM (inactive).
`C[C@H]1CCC/C=C/[C@@H]2C[C@H](O)C[C@H]2[C@H](O)/C=C/C(=O)O1` [BREFELDIN A]: the GI50 in [1] was 19.2 nM (active) and < 19.9 nM (active); in [2] it was 36.7 nM (active) and 40.8 nM (active); in assay [20] it was < 10 nM (active) and 10.1 nM (active); in assay [4], < 21.4 nM (active) and 21.1 nM (active); in [7], 32.7 nM (active) and < 17.4 nM (active); in [8], 14.3 nM (active) and 16.4 nM (active). The GI50 was 60.1 nM (active) and 44.1 nM (active) in [19]; 47.4 nM (active) and 30.6 nM (active) in assay [11]; < 14.9 nM (active) and 27.4 nM (active) in [12]; 18.1 nM (active) and 11.3 nM (active) in [14]; 13.2 nM (active) and 12.3 nM (active) in assay [15]; 36.6 nM (active) and 71.5 nM (active) in assay [18].
Consider `CN(/N=C/c1ccnc2ccccc12)c1c([N+](=O)[O-])cc([N+](=O)[O-])cc1[N+](=O)[O-]`, for which the GI50 was 60.5 µM (inactive) in [1]; > 100 µM (inactive) in assay [2]; 47.3 µM (inactive) in [3]; > 100 µM (inactive) in assay [4]; 26.6 µM (inactive) in assay [6]; 38.5 µM (inactive) in [7]. In addition, the GI50 was > 100 µM (inactive) in assay [8]; 28.1 µM (inactive) in [9]; > 100 µM (inactive) in assay [19]; > 100 µM (inactive) in assay [10]; 24.4 µM (inactive) in assay [11]; > 100 µM (inactive) in assay [13]. For the same molecule, the GI50 in assay [14] was 31.5 µM (inactive); in assay [15], 48.2 µM (inactive); in [16], 25.1 µM (inactive); in assay [17], 72.6 µM (inactive); in [18] it was 30.7 µM (inactive).
`C[C@]12CCc3nonc3C1CC[C@@H]1C2CC[C@@]2(C)C1CC[C@@H]2O` (stereo not given in full): the GI50 in assay [1], in [2], in assay [3], in [4], in assay [6] and in assay [7] was > 100 µM (inactive) each time. The GI50 in assay [8], in assay [9], in assay [19], in [10], in assay [11] and in [13] was > 100 µM (inactive) throughout. Moreover, the GI50 in [14], in assay [15], in assay [16], in [17] and in assay [18] was > 100 µM (inactive) in each case.
As to `FC(F)(F)c1nc(Br)[nH]c1C(F)(F)F`, the GI50 in assay [1] was > 100 µM (inactive); in assay [2], > 100 µM (inactive); in assay [3], > 100 µM (inactive); in assay [4] it was > 100 µM (inactive); in assay [6] it was 51.3 µM (inactive); in assay [7], > 100 µM (inactive). Further, the GI50 was > 100 µM (inactive) in [8]; > 100 µM (inactive) in assay [9]; > 100 µM (inactive) in [19]; > 100 µM (inactive) in assay [10]; 38.4 µM (inactive) in assay [11]; > 100 µM (inactive) in [13]. The GI50 in assay [14] is > 100 µM (inactive); in assay [15], > 100 µM (inactive); in [16], > 100 µM (inactive); in assay [17] it was > 100 µM (inactive); in assay [18], 43 µM (inactive).
For `O=C1c2ccc3c4ccccc4n(Cc4ccccc4)c3c2C(=O)N1c1ccccc1`, the GI50 in [1] is 17 µM (inactive); in [2] it was 15.6 µM (inactive); in [3], 17.5 µM (inactive); in [4], 17.1 µM (inactive); in [6] it was 9.02 µM (inactive); in assay [7], 5.98 µM (inactive). The GI50 in assay [8] was 3.52 µM (inactive); in [9] it was 3.05 µM (inactive); in assay [19], 24.9 µM (inactive); in assay [10] it was 17.8 µM (inactive); in assay [11], 22.9 µM (inactive); in assay [13] it was 20 µM (inactive). In addition, the GI50 in assay [14] was 16.2 µM (inactive); in assay [15] it was 16.2 µM (inactive); in assay [16], 12.5 µM (inactive); in assay [17], > 35.7 µM (inactive); in assay [18], 6.07 µM (inactive).
